# From ChEMBL document CHEMBL1135136, “Carbonic anhydrase inhibitors. Preparation of potent sulfonamides inhibitors incorporating bile acid tails” (Bioorg Med Chem Lett, 2002)
# “And” between values parts separate entries of the source, which are not always exact repeats. Identical values can stand only once.
# Assays:
# [1] = biological target: T1, Carbonic anhydrase 4 (Bos taurus, UniProt Q95323)
# T1 sequence (Q95323 whole entry): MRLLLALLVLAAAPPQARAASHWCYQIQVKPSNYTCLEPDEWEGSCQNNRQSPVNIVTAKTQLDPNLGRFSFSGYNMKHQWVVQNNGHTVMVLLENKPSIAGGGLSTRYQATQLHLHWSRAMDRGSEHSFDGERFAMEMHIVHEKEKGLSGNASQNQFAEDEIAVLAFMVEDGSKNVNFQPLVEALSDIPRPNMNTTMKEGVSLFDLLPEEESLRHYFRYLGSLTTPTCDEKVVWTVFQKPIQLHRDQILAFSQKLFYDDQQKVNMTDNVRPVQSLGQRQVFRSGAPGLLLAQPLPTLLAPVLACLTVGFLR
# Description: Inhibitory activity against bovine carbonic anhydrase IV (CA4), obtained from bovine lung microsomes
# [2] = species on record: Oryctolagus cuniculus
# Description: Tested for level of sulfonamide in red blood cells of albino rabbits at 60 min post-administration of 50 mg/kg sulfonamides
# [3] = biological target: Carbonic anhydrase 1 (Homo sapiens, UniProt P00915)
# Description: Inhibitory activity against human recombinant carbonic anhydrase I (CA1)
# [4] = species on record: Oryctolagus cuniculus; remark: listed apart in the source
# Description: (§1) Tested for level of sulfonamide in red blood cells of albino rabbits at 120 min post-administration of 50 mg/kg sulfonamides
# [5] = species on record: Oryctolagus cuniculus; remark: listed apart in the source
# Description: as §1
# [6] = biological target: Carbonic anhydrase 2 (Homo sapiens, UniProt P00918)
# Description: Inhibitory activity against human recombinant carbonic anhydrase II (CA2)
# Chain of Carbonic anhydrase 1 (P00915 whole entry): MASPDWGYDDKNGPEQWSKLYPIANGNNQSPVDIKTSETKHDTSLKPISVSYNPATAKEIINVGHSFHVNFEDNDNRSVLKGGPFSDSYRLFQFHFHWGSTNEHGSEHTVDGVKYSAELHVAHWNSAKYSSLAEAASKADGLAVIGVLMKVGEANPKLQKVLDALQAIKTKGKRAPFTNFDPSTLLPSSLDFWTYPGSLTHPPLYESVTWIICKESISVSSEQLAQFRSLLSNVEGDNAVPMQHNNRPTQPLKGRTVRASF
SMILES,Ki [1] [nM],Level [2],Ki [3] [nM],Level [4] [µM],Level [5] [µM],Ki [6] [nM]
C[C@H](CCC(=O)Oc1ccc2nc(S(N)(=O)=O)sc2c1)[C@H]1CC[C@H]2[C@@H]3C(=O)C[C@@H]4CC(=O)CC[C@]4(C)[C@H]3CC(=O)[C@]12C,5,156 µM and 159 µM,33,163,158,0.6
C[C@H](CCC(=O)Nc1nnc(S(N)(=O)=O)s1)[C@H]1CC[C@H]2[C@@H]3C(=O)C[C@@H]4CC(=O)CC[C@]4(C)[C@H]3CC(=O)[C@]12C,9,155 µM and 162 µM,41,159,151,0.5
C[C@H](CCC(=O)NCCc1ccc(S(N)(=O)=O)cc1)[C@H]1CC[C@H]2[C@@H]3CC[C@@H]4C[C@H](O)CC[C@]4(C)[C@H]3C[C@H](O)[C@]12C,245,–,1500,–,–,77
C[C@H](CCC(=O)Nc1ccc(S(N)(=O)=O)cc1F)[C@H]1CC[C@H]2[C@@H]3[C@H](O)C[C@@H]4C[C@H](O)CC[C@]4(C)[C@H]3CC[C@]12C,128,–,1050,–,–,50
C[C@H](CCC(=O)Nc1nnc(S(N)(=O)=O)s1)[C@H]1CC[C@H]2[C@@H]3[C@H](O)C[C@@H]4C[C@H](O)CC[C@]4(C)[C@H]3CC[C@]12C,240,–,410,–,–,52
C[C@H](CCC(=O)Nc1cc(Cl)c(S(N)(=O)=O)cc1S(N)(=O)=O)[C@H]1CC[C@H]2[C@@H]3[C@H](O)C[C@@H]4C[C@H](O)CC[C@]4(C)[C@H]3C[C@H](O)[C@]12C,130,–,400,–,–,56
C[C@H](CCC(=O)Nc1cccc(S(N)(=O)=O)c1)[C@H]1CC[C@H]2[C@@H]3[C@H](O)C[C@@H]4C[C@H](O)CC[C@]4(C)[C@H]3CC[C@]12C,1250,–,21400,–,–,210
C[C@H](CCC(=O)NCc1ccc(S(N)(=O)=O)cc1)[C@H]1CC[C@H]2[C@@H]3CC[C@@H]4C[C@H](O)CC[C@]4(C)[C@H]3CC[C@]12C,83,–,910,–,–,48
C[C@H](CCC(=O)Nc1ccc(S(N)(=O)=O)cc1Br)[C@H]1CC[C@H]2[C@@H]3[C@@H](O)C[C@@H]4C[C@H](O)CC[C@]4(C)[C@H]3CC[C@]12C,23,–,91,–,–,10
C[C@H](CCC(=O)Nc1ccc(S(N)(=O)=O)cc1I)[C@H]1CC[C@H]2[C@@H]3[C@@H](O)C[C@@H]4C[C@H](O)CC[C@]4(C)[C@H]3CC[C@]12C,20,–,67,–,–,13
C[C@H](CCC(=O)Nc1cc(Cl)c(S(N)(=O)=O)cc1S(N)(=O)=O)[C@H]1CC[C@H]2[C@@H]3C(=O)C[C@@H]4CC(=O)CC[C@]4(C)[C@H]3CC(=O)[C@]12C,50,–,77,–,–,11
C[C@H](CCC(=O)Nc1c(S(N)(=O)=O)cc(S(N)(=O)=O)c(Cl)c1Cl)[C@H]1CC[C@H]2[C@@H]3CC[C@@H]4C[C@H](O)CC[C@]4(C)[C@H]3CC[C@]12C,87,–,130,–,–,17
C[C@H](CCC(=O)NCc1ccc(S(N)(=O)=O)cc1)[C@H]1CC[C@H]2[C@@H]3CC[C@@H]4C[C@H](O)CC[C@]4(C)[C@H]3C[C@H](O)[C@]12C,233,–,1710,–,–,80
C[C@H](CCC(=O)NCCC(=O)Nc1nnc(S(N)(=O)=O)s1)[C@H]1CC[C@H]2[C@@H]3[C@H](O)C[C@@H]4C[C@H](O)CC[C@]4(C)[C@H]3C[C@H](O)[C@]12C,31,–,250,–,–,1.2
C[C@H](CCC(=O)OCc1ccc(S(N)(=O)=O)cc1)[C@H]1CC[C@H]2[C@@H]3CC[C@@H]4C[C@H](O)CC[C@]4(C)[C@H]3C[C@H](O)[C@]12C,350,–,1000,–,–,106
